Source: the NIST ThermoML archive (doi:10.1021/je050416y)

Experiment: xn = mol fraction of the nth substance listed
Conditions: 101 kPa, Liquid; for mass density: Vibrating tube method

CCC(C)(C)O [2-methylbutan-2-ol] + CCO
Conditions	kinematic viscosity, 308.15 K [m2/s]	kinematic viscosity, 313.15 K [m2/s]	kinematic viscosity, 318.15 K [m2/s]	kinematic viscosity, 323.15 K [m2/s]	mass density, 313.15 K [kg/m3]	mass density, 318.15 K [kg/m3]	mass density, 323.15 K [kg/m3]
x1 = 0.0268	–	–	–	–	773.5	769.3	764.9
x1 = 0.0549	–	–	–	–	774.8	770.6	766.3
x1 = 0.0845	–	–	–	–	776	771.9	767.7
x1 = 0.0915	1.23e-06	1.12e-06	1.02e-06	9.01e-07	–	–	–
x1 = 0.1156	–	–	–	–	777.2	773.2	769.1
x1 = 0.1484	–	–	–	–	778.4	774.4	770.4
x1 = 0.1753	1.33e-06	1.2e-06	1.1e-06	9.68e-07	–	–	–
x1 = 0.183	–	–	–	–	779.6	775.7	771.8
x1 = 0.2524	1.42e-06	1.29e-06	1.18e-06	1.03e-06	–	–	–
x1 = 0.2584	–	–	–	–	782.2	778.4	774.6
x1 = 0.3235	1.52e-06	1.37e-06	1.25e-06	1.09e-06	–	–	–
x1 = 0.3433	–	–	–	–	784.9	781.2	777.5
x1 = 0.3894	1.62e-06	1.46e-06	1.33e-06	1.16e-06	–	–	–
x1 = 0.4395	–	–	–	–	787.9	784.2	780.5
x1 = 0.4505	1.72e-06	1.55e-06	1.41e-06	1.22e-06	–	–	–
x1 = 0.5495	–	–	–	–	790.9	787.3	783.7
x1 = 0.5605	1.95e-06	1.74e-06	1.57e-06	1.35e-06	–	–	–
x1 = 0.6567	2.19e-06	1.94e-06	1.73e-06	1.49e-06	–	–	–
x1 = 0.6765	–	–	–	–	794	790.5	787
x1 = 0.7416	2.43e-06	2.14e-06	1.9e-06	1.62e-06	–	–	–
x1 = 0.817	2.68e-06	2.34e-06	2.07e-06	1.75e-06	–	–	–
x1 = 0.8247	–	–	–	–	797.1	793.6	790.2
x1 = 0.8844	2.93e-06	2.54e-06	2.23e-06	1.87e-06	–	–	–
x1 = 0.9451	3.16e-06	2.73e-06	2.38e-06	1.99e-06	–	–	–
x1 = 1	3.39e-06	2.91e-06	2.52e-06	2.09e-06	800	796.6	793.3
